Key:
[1] = target: T1, human H3 receptor (Homo sapiens, UniProt Q9Y5N1); assay: Human H3 radioligand binding ([3H]-N-alpha-methylhistamine, SPA); conditions: human H3 binding, Table D; read-out: Human H3 Ki
T1 construct: expressed in transfected cells
In short: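 SPA competition binding on membranes from CHO cells stably expressing human H3 receptor (10 μg protein/well) with ~1 nM [3H]-N-alpha-methylhistamine and compound at 0.01 nM-30 μM. Incubation 4 h at room temperature in 50 mM Tris-HCl pH 7.4, 5 mM MgCl2, 0.1% BSA; non-specific binding defined with 10 μM clobenpropit.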

[2] = target: T2, rat histamine H3 receptor (Rattus norvegicus, UniProt Q9QYN8); assay: Rat H3 radioligand binding ([3H]-N-alpha-methylhistamine, SPA); conditions: rat H3 binding, Table D; read-out: Rat H3 Ki
T2 construct: encoding the entire 445-amino-acid rat histamine H3 receptor; expressed in transfected cells; membrane preparation
In short: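 Membranes from CHO-A3 cells stably expressing full-length rat H3 receptor (10 μg protein/well) incubated 4 h at room temperature, protected from light, with ~1 nM [3H]-N-alpha-methylhistamine and compound (0.01 nM-30 μM) in 50 mM Tris HCl pH 7.4, 5 mM MgCl2, 0.1% BSA. Binding read by SPA; 10 μM clobenpropit defined non-specific binding.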

T1 sequence (Q9Y5N1 whole entry): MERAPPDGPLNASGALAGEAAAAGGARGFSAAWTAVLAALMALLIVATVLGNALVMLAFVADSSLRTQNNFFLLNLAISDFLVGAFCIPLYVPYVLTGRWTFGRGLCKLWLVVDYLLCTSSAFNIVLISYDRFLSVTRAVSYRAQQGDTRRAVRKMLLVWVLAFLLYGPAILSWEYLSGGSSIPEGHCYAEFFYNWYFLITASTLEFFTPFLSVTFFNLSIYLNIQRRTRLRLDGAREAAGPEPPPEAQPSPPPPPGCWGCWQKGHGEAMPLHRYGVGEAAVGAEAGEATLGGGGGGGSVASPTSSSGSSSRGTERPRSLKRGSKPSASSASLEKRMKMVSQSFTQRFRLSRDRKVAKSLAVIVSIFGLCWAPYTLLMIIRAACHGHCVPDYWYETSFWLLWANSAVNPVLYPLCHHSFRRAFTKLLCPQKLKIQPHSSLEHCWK
T2 sequence (Q9QYN8 whole entry): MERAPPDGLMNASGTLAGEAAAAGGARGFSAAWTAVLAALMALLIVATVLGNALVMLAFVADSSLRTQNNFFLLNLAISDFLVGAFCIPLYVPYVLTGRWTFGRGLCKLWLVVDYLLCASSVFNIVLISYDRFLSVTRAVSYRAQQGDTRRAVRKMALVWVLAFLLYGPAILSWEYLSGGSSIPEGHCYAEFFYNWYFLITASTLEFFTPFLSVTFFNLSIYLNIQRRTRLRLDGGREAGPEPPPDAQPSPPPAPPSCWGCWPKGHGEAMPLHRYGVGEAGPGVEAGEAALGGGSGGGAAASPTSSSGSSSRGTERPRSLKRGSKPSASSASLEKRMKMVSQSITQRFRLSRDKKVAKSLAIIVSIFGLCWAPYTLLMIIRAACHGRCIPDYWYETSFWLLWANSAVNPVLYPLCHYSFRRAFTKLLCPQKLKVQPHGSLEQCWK

`CCc1[nH]c(=O)ccc1-c1ccc2c(c1)COC1(CCN(C3CCC3)CC1)O2` [Example 767] showed a Ki [1] of under 200 nM, a melting point of 230 to 231 °C and a Ki [2] of under 200 nM.
`COc1ncc(-c2ccc3c(c2)COC2(CCN(C4CCC4)CC2)O3)cc1CO` [Example 768] gave a Ki [1] of under 200 nM, a melting point of 150 to 151 °C and a Ki [2] of under 200 nM.
With `COc1cc(C)c(-c2ccc3c(c2)CCC2(CCN(C4CCC4)CC2)O3)cn1` [Example 769] the Ki [1] was under 200 nM, the melting point was 127 to 128 °C and the Ki [2] was under 200 nM.
With `Cn1cc(-c2ccc3c(c2)COC2(CCN(C4CCC4)CC2)O3)c(CO)cc1=O` [Example 770] the Ki [1] was under 200 nM, the melting point was 120 to 123 °C and the Ki [2] was under 200 nM.
`Cc1cc(=O)[nH]cc1-c1ccc2c(c1)CCC1(CCN(C3CCC3)CC1)O2` [Example 771] gave a Ki [1] of under 200 nM, a melting point of 252 to 254 °C and a Ki [2] of under 200 nM.
Work on `O=c1cc(-c2ccc3c(c2)COC2(CCN(C4CCC4)CC2)O3)ccn1CC(F)(F)F` [Example 772] yielded a Ki [1] of under 200 nM, a melting point of 196 to 198 °C and a Ki [2] of under 200 nM.
For `O=c1[nH]cc(-c2ccc3c(c2)COC2(CCN(C4CCC4)CC2)O3)cc1CO` [Example 773], the Ki [1] was under 200 nM, the melting point was 228 to 230 °C and the Ki [2] was under 200 nM.
`CCSCc1cc(-c2ccc3c(c2)COC2(CCN(C4CCC4)CC2)O3)c[nH]c1=O` [Example 774] showed a Ki [1] of under 200 nM, a melting point of 205 to 207 °C and a Ki [2] of under 200 nM.
`O=c1cc(-c2ccc3c(c2)COC2(CCN(C4CCC4)CC2)O3)ccn1C(F)F` [Example 775] gave a Ki [1] of under 200 nM, a melting point of 175 to 177 °C and a Ki [2] of under 200 nM.
For `Cc1c(-c2ccc3c(c2)COC2(CCN(C4CCC4)CC2)O3)cn(C(C)C)c(=O)c1C` [Example 776], the Ki [1] was under 200 nM, the melting point was 89 to 92 °C and the Ki [2] was under 200 nM.
With `O=c1[nH]cc(-c2ccc3c(c2)COC2(CCN(C4CCC4)CC2)O3)c2ccccc12` [Example 777] the Ki [1] was under 200 nM, the melting point was 202 to 204 °C and the Ki [2] was under 200 nM.
Work on `CCn1cc(-c2ccc3c(c2)COC2(CCN(C4CCC4)CC2)O3)ccc1=O` [Example 778] yielded a Ki [1] of under 200 nM, a melting point of 156 to 158 °C and a Ki [2] of under 200 nM.
`CC(C)n1cc(Cl)c(-c2ccc3c(c2)COC2(CCN(C4CCC4)CC2)O3)cc1=O` [Example 779] gave a Ki [1] of under 200 nM, a melting point of 179 to 181 °C and a Ki [2] of under 200 nM.
With `CC(C)Oc1cc(-c2ccc3c(c2)COC2(CCN(C4CCC4)CC2)O3)c(Cl)cn1` [Example 780] the Ki [1] was under 200 nM, the melting point was 131 to 132 °C and the Ki [2] was under 200 nM.
`O=c1cc(-c2ccc3c(c2)COC2(CCN(C4CCC4)CC2)O3)c(Cl)cn1CC(F)(F)F` [Example 781] showed a Ki [1] of under 200 nM, a melting point of 194 to 197 °C and a Ki [2] of under 200 nM.
`FC(F)(F)COc1cc(-c2ccc3c(c2)COC2(CCN(C4CCC4)CC2)O3)c(Cl)cn1` [Example 782] gave a Ki [1] of under 200 nM, a melting point of 119 to 121 °C and a Ki [2] of under 200 nM.
Work on `Cc1c(-c2ccc3c(c2)COC2(CCN(C4CCC4)CC2)O3)cn(CC(F)(F)F)c(=O)c1C` [Example 783] yielded a Ki [1] of under 200 nM, a melting point of 96 to 98 °C and a Ki [2] of under 200 nM.
`O=c1c(Cl)c(-c2ccc3c(c2)COC2(CCN(C4CCC4)CC2)O3)ccn1CC(F)(F)F` [Example 784] gave a Ki [1] of under 200 nM, a melting point of 71.2 to 73.6 °C and a Ki [2] of under 200 nM.
Compound `Cc1cscc1-c1ccc2c(c1)COC1(CCN(C3CCC3)CC1)O2` [Example 785] has a Ki [1] of under 200 nM, a melting point of 91 to 93 °C and a Ki [2] of under 200 nM.
Compound `Cn1cc(-c2ccc3c(c2)COC2(CCN(C4CCC4)CC2)O3)c2ccccc2c1=O` [Example 786] has a Ki [1] of under 200 nM, a melting point of 207 to 209 °C and a Ki [2] of under 200 nM.
For `Cc1nc2ccccc2c(=O)n1-c1ccc2c(c1)COC1(CCN(C3CCC3)CC1)O2` [Example 787], the Ki [1] was under 200 nM, the melting point was 206 to 207 °C and the Ki [2] was under 200 nM.
`COc1ncc(-c2ccc3c(c2)COC2(CCN(C4CCC4)CC2)O3)cc1O` [Example 788] gave a Ki [1] of under 200 nM, a melting point of 61 to 63 °C and a Ki [2] of under 200 nM.
For `CCc1nc(OC)ccc1-c1ccc2c(c1)COC1(CCN(C3CCC3)CC1)O2` [Example 789], the Ki [1] was under 200 nM, the melting point was 59 to 61 °C and the Ki [2] was under 200 nM.
Compound `Cc1nc2cccc(C(F)(F)F)c2c(=O)n1-c1ccc2c(c1)COC1(CCN(C3CCC3)CC1)O2` [Example 791] has a Ki [1] of under 200 nM, a melting point of 221 to 222 °C and a Ki [2] of under 200 nM.
Compound `Cc1ccc2nc(C)n(-c3ccc4c(c3)COC3(CCN(C5CCC5)CC3)O4)c(=O)c2c1` [Example 792] has a Ki [1] of under 200 nM, a melting point of 149 to 152 °C and a Ki [2] of under 200 nM.
`CCS(=O)(=O)c1c[nH]c(=O)cc1-c1ccc2c(c1)COC1(CCN(C3CCC3)CC1)O2` [Example 793] showed a Ki [1] of under 200 nM, a melting point of 190 to 192 °C and a Ki [2] of under 200 nM.
In the case of `COc1ccc2nc(C)n(-c3ccc4c(c3)COC3(CCN(C5CCC5)CC3)O4)c(=O)c2c1` [Example 794], the Ki [1] is reported as under 200 nM, the melting point is reported as 155 to 157 °C and the Ki [2] is reported as under 200 nM.
Compound `COc1cc(C)c(-c2ccc3c(c2)COC2(CCN(C4CCC4)CC2)O3)c(C)n1` [Example 795] has a Ki [1] of under 200 nM, a melting point of 149.8 to 150.4 °C and a Ki [2] of under 200 nM.
Work on `COc1nc(C)c(-c2ccc3c(c2)COC2(CCN(C4CCC4)CC2)O3)cc1C#N` [Example 796] yielded a Ki [1] of under 200 nM, a melting point of 215 to 217 °C and a Ki [2] of under 200 nM.
`COc1ccc(-c2ccc3c(c2)CCC2(CCN(C4CCC4)CC2)O3)c(C)n1` [Example 797] showed a Ki [1] of under 200 nM, a melting point of 72 to 73 °C and a Ki [2] of under 200 nM.
`COCc1cc(=O)[nH]cc1-c1ccc2c(c1)COC1(CCN(C3CCC3)CC1)O2` [Example 798] gave a Ki [1] of under 200 nM, a melting point of 217 to 219 °C and a Ki [2] of under 200 nM.
In the case of `Cc1c(-c2ccc3c(c2)COC2(CCN(C4CCC4)CC2)O3)c[nH]c(=O)c1C` [Example 799], the Ki [1] is reported as under 200 nM, the melting point is reported as 178 to 180 °C and the Ki [2] is reported as under 200 nM.
In the case of `COc1ncc(-c2ccc3c(c2)COC2(CCN(C4CCC4)CC2)O3)c(C)c1C` [Example 800], the Ki [1] is reported as under 200 nM, the melting point is reported as 233 to 235 °C and the Ki [2] is reported as under 200 nM.
`Cc1nc2cccc(Cl)c2c(=O)n1-c1ccc2c(c1)COC1(CCN(C3CCC3)CC1)O2` [Example 801] gave a Ki [1] of under 200 nM, a melting point of 105 to 107 °C and a Ki [2] of under 200 nM.
With `CCc1cc(OC)ncc1-c1ccc2c(c1)COC1(CCN(C3CCC3)CC1)O2` [Example 802] the Ki [1] was under 200 nM, the melting point was 156 to 160 °C and the Ki [2] was under 200 nM.
Compound `CCc1cc(=O)[nH]cc1-c1ccc2c(c1)COC1(CCN(C3CCC3)CC1)O2` [Example 803] has a Ki [1] of under 200 nM, a melting point of 107 to 109 °C and a Ki [2] of under 200 nM.
For `COCc1cc(-c2ccc3c(c2)COC2(CCN(C4CCC4)CC2)O3)cnc1OC` [Example 804], the Ki [1] was under 200 nM, the melting point was 257 °C and the Ki [2] was under 200 nM.
`COCc1cc(-c2ccc3c(c2)COC2(CCN(C4CCC4)CC2)O3)c[nH]c1=O` [Example 805] gave a Ki [1] of under 200 nM, a melting point of 212 to 214 °C and a Ki [2] of under 200 nM.
For `Cc1cc(=O)[nH]c(C)c1-c1ccc2c(c1)COC1(CCN(C3CCC3)CC1)O2` [Example 806], the Ki [1] was under 200 nM, the melting point was 247 to 249 °C and the Ki [2] was under 200 nM.
`CCc1cc(-c2ccc3c(c2)COC2(CCN(C4CCC4)CC2)O3)c(C)[nH]c1=O` [Example 808] gave a Ki [1] of under 200 nM, a melting point of 211 to 213 °C and a Ki [2] of under 200 nM.
